Reference: PubChem BioAssay (NCI)
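96-well plates; 48 h exposure; 5 concentrations. Endpoints by linear interpolation between flanking doses. Not reached: highest tested concentration assigned. The concentration for full growth arrest is given as TGI.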

Columns and labels:
Assay in all cases: DTP human tumour cell line panel, 48 h
786-0 renal = system: 786-0 renal
A498 renal = system: A498 renal
A549 NSCLC = system: A549 NSCLC
ACHN renal = system: ACHN renal
BT-549 breast = system: BT-549 breast
CAKI-1 renal = system: CAKI-1 renal
CCRF-CEM leukemia = system: CCRF-CEM leukemia
COLO 205 colon = system: COLO 205 colon
DU-145 prostate = system: DU-145 prostate
EKVX NSCLC = system: EKVX NSCLC
HCT-116 colon = system: HCT-116 colon
HCT-15 colon = system: HCT-15 colon
HL-60(TB) leukemia = system: HL-60(TB) leukemia
HOP-62 NSCLC = system: HOP-62 NSCLC
HOP-92 NSCLC = system: HOP-92 NSCLC
HS 578T breast = system: HS 578T breast
HT29 colon = system: HT29 colon
IGROV1 ovarian = system: IGROV1 ovarian
K-562 leukemia = system: K-562 leukemia
KM12 colon = system: KM12 colon
LOX IMVI melanoma = system: LOX IMVI melanoma
M14 melanoma = system: M14 melanoma
MALME-3M melanoma = system: MALME-3M melanoma
MCF7 breast = system: MCF7 breast
MDA-MB-231 breast = system: MDA-MB-231 breast
MDA-MB-435 = system: MDA-MB-435
MDA-N = system: MDA-N
MOLT-4 leukemia = system: MOLT-4 leukemia
NCI-H226 lung = system: NCI-H226 lung
NCI-H23 lung = system: NCI-H23 lung
NCI-H460 lung = system: NCI-H460 lung
NCI-H522 lung = system: NCI-H522 lung
NCI/ADR-RES ovarian = system: NCI/ADR-RES ovarian
OVCAR-3 ovarian = system: OVCAR-3 ovarian
OVCAR-4 ovarian = system: OVCAR-4 ovarian
OVCAR-5 ovarian = system: OVCAR-5 ovarian
OVCAR-8 ovarian = system: OVCAR-8 ovarian
PC-3 prostate = system: PC-3 prostate
RXF 393 renal = system: RXF 393 renal
SF-268 CNS = system: SF-268 CNS
SF-295 CNS = system: SF-295 CNS
SK-MEL-2 melanoma = system: SK-MEL-2 melanoma
SK-MEL-28 melanoma = system: SK-MEL-28 melanoma
SK-MEL-5 melanoma = system: SK-MEL-5 melanoma
SK-OV-3 ovarian = system: SK-OV-3 ovarian
SN12C renal = system: SN12C renal
SNB-19 CNS = system: SNB-19 CNS
SW-620 colon = system: SW-620 colon
T-47D breast = system: T-47D breast
TK-10 renal = system: TK-10 renal
U251 CNS = system: U251 CNS
UACC-257 melanoma = system: UACC-257 melanoma
UACC-62 melanoma = system: UACC-62 melanoma
UO-31 renal = system: UO-31 renal
HCC-2998 colon = system: HCC-2998 colon
RPMI-8226 leukemia = system: RPMI-8226 leukemia
SNB-75 CNS = system: SNB-75 CNS

Q: Which results are given for `CC1(C)CC[C@]2(C)[C@@H](O)C[C@]3(C)C(=CC[C@@H]4[C@@]5(C)CC[C@H](O)C(C)(C)[C@@H]5CC[C@]43C)[C@@H]2C1`?
A: TGI (786-0 renal): > 100 µM; TGI (A498 renal): 99.2 µM; TGI (A549 NSCLC): > 100 µM; TGI (ACHN renal): > 100 µM; TGI (BT-549 breast): > 100 µM; TGI (CAKI-1 renal): > 100 µM; TGI (CCRF-CEM leukemia): > 100 µM; TGI (COLO 205 colon): > 100 µM; TGI (DU-145 prostate): > 100 µM; TGI (EKVX NSCLC): > 100 µM; TGI (HCT-116 colon): > 100 µM; TGI (HCT-15 colon): > 100 µM; TGI (HL-60(TB) leukemia): > 100 µM; TGI (HOP-62 NSCLC): > 100 µM; TGI (HOP-92 NSCLC): 42.3 µM; TGI (HS 578T breast): 99.3 µM; TGI (HT29 colon): > 100 µM; TGI (IGROV1 ovarian): > 100 µM; TGI (K-562 leukemia): > 100 µM; TGI (KM12 colon): > 100 µM; TGI (LOX IMVI melanoma): 46.1 µM; TGI (M14 melanoma): > 100 µM; TGI (MALME-3M melanoma): 86.9 µM; TGI (MCF7 breast): > 100 µM; TGI (MDA-MB-231 breast): 48.6 µM; TGI (MDA-MB-435): > 100 µM; TGI (MDA-N): > 100 µM; TGI (MOLT-4 leukemia): > 100 µM; TGI (NCI-H226 lung): > 100 µM; TGI (NCI-H23 lung): > 100 µM; TGI (NCI-H460 lung): > 100 µM; TGI (NCI-H522 lung): > 100 µM; TGI (NCI/ADR-RES ovarian): > 100 µM; TGI (OVCAR-3 ovarian): > 100 µM; TGI (OVCAR-4 ovarian): > 100 µM; TGI (OVCAR-5 ovarian): > 100 µM; TGI (OVCAR-8 ovarian): 74.3 µM; TGI (PC-3 prostate): > 100 µM; TGI (RXF 393 renal): 22.4 µM; TGI (SF-268 CNS): > 100 µM; TGI (SF-295 CNS): > 100 µM; TGI (SK-MEL-2 melanoma): 80.7 µM; TGI (SK-MEL-28 melanoma): > 100 µM; TGI (SK-MEL-5 melanoma): > 100 µM; TGI (SK-OV-3 ovarian): 40.7 µM; TGI (SN12C renal): > 100 µM; TGI (SNB-19 CNS): > 100 µM; TGI (SW-620 colon): > 100 µM; TGI (T-47D breast): 67.7 µM; TGI (TK-10 renal): 93.2 µM; TGI (U251 CNS): > 100 µM; TGI (UACC-257 melanoma): > 100 µM; TGI (UACC-62 melanoma): > 100 µM; TGI (UO-31 renal): > 100 µM

Q: What does the source list for `Cc1ccc(N2C=Nn3c(nc4sc5c(c4c3=O)CCCC5)C2)cc1`?
A: TGI (786-0 renal): > 100 µM; TGI (A498 renal): > 100 µM; TGI (A549 NSCLC): > 100 µM; TGI (ACHN renal): > 100 µM; TGI (BT-549 breast): > 100 µM; TGI (CAKI-1 renal): > 100 µM; TGI (CCRF-CEM leukemia): > 100 µM; TGI (COLO 205 colon): > 100 µM; TGI (DU-145 prostate): > 100 µM; TGI (EKVX NSCLC): > 100 µM; TGI (HCC-2998 colon): > 100 µM; TGI (HCT-116 colon): > 100 µM; TGI (HCT-15 colon): > 100 µM; TGI (HOP-62 NSCLC): 69.2 µM; TGI (HOP-92 NSCLC): > 100 µM; TGI (HS 578T breast): 92 µM; TGI (HT29 colon): > 100 µM; TGI (IGROV1 ovarian): > 100 µM; TGI (K-562 leukemia): > 100 µM; TGI (KM12 colon): > 100 µM; TGI (LOX IMVI melanoma): > 100 µM; TGI (M14 melanoma): > 100 µM; TGI (MALME-3M melanoma): > 100 µM; TGI (MCF7 breast): > 100 µM; TGI (MDA-MB-231 breast): > 100 µM; TGI (MDA-MB-435): > 100 µM; TGI (MDA-N): > 100 µM; TGI (MOLT-4 leukemia): > 100 µM; TGI (NCI-H226 lung): > 100 µM; TGI (NCI-H23 lung): > 100 µM; TGI (NCI-H460 lung): > 100 µM; TGI (NCI-H522 lung): > 100 µM; TGI (NCI/ADR-RES ovarian): > 100 µM; TGI (OVCAR-3 ovarian): > 100 µM; TGI (OVCAR-4 ovarian): > 100 µM; TGI (OVCAR-5 ovarian): > 100 µM; TGI (OVCAR-8 ovarian): > 100 µM; TGI (PC-3 prostate): > 100 µM; TGI (RPMI-8226 leukemia): > 100 µM; TGI (RXF 393 renal): > 100 µM; TGI (SF-268 CNS): > 100 µM; TGI (SF-295 CNS): > 100 µM; TGI (SK-MEL-2 melanoma): > 100 µM; TGI (SK-MEL-28 melanoma): > 100 µM; TGI (SK-MEL-5 melanoma): > 100 µM; TGI (SK-OV-3 ovarian): > 100 µM; TGI (SN12C renal): > 100 µM; TGI (SNB-19 CNS): > 100 µM; TGI (SNB-75 CNS): > 100 µM; TGI (SW-620 colon): > 100 µM; TGI (T-47D breast): > 100 µM; TGI (TK-10 renal): > 100 µM; TGI (U251 CNS): > 100 µM; TGI (UACC-257 melanoma): > 100 µM; TGI (UACC-62 melanoma): > 100 µM; TGI (UO-31 renal): > 100 µM
